This is an account of results in PubChem BioAssay (NCI).

Test systems include HL-60(TB) leukemia; MCF7 breast; SK-MEL-2 melanoma; SK-OV-3 ovarian; COLO 205 colon; OVCAR-5 ovarian; IGROV1 ovarian; SR leukemia; M14 melanoma; ACHN renal; MDA-MB-231 breast.
Common to all, as to experiment: inhibition of tumour cell growth, NCI panel, 48 h

Values joined by “and” are separate entries in the source; they are usually repeats but may differ in a detail not shown here. Identical values can stand only once.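 The compound was tested at five concentrations on cells cultured in 96-well plates, with a 48-hour exposure period. GI50: concentration for 50% inhibition of growth. TGI denotes the concentration required for complete inhibition of growth.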

For the molecule `O=c1oc2cc(O)ccc2c2oc3cc(O)ccc3c12`, the TGI is above 125 µM with HL-60(TB) leukemia; 122 µM in the assay on MCF7 breast; above 125 µM in the assay on SK-MEL-2 melanoma; 70.8 µM in the assay with SK-OV-3 ovarian; 72.5 µM in the assay on COLO 205 colon; above 125 µM in the assay with OVCAR-5 ovarian. Further, the TGI in the assay with IGROV1 ovarian is above 125 µM.
As for `CC(=O)OCC1=CC2OC(=O)C3=COC(OC4OC(CO)C(O)C(O)C4O)C1C32` (centres undefined), the TGI in the assay on HL-60(TB) leukemia, with MCF7 breast, in the assay with SK-MEL-2 melanoma, in the assay with SK-OV-3 ovarian, in the assay on COLO 205 colon and with OVCAR-5 ovarian was above 100 µM throughout. In addition, the TGI in the assay on SR leukemia, in the assay with M14 melanoma, with IGROV1 ovarian, in the assay on ACHN renal and in the assay on MDA-MB-231 breast was above 100 µM each time.
For `C1=CC=C2NCCc3cccc(c3)CCNC3=CC=CC=CC3=NCCCCCCN=C2C=C1`, the TGI with HL-60(TB) leukemia was 20.9 µM; in the assay with SK-MEL-2 melanoma it was 79.8 µM; in the assay with SK-OV-3 ovarian, 70.6 µM; with COLO 205 colon it was 38.8 µM; in the assay on OVCAR-5 ovarian, 47.8 µM; in the assay with SR leukemia it was 82.4 µM. The TGI in the assay with M14 melanoma was 29.8 µM; with IGROV1 ovarian, above 100 µM; with ACHN renal it was above 100 µM.
As to `COc1nc2ccc(CNc3ccc(C(=O)NC(CCC(=O)O)C(=O)O)cc3)cc2nc1OC` (centres undefined), the TGI with HL-60(TB) leukemia, with MCF7 breast, with SK-MEL-2 melanoma, in the assay with SK-OV-3 ovarian, with COLO 205 colon and in the assay with OVCAR-5 ovarian was above 100 µM in each case. For the same molecule, the TGI in the assay on SR leukemia, in the assay on M14 melanoma, in the assay with IGROV1 ovarian, in the assay on ACHN renal and with MDA-MB-231 breast was above 100 µM in each case.
For the molecule `CC(=O)OC12CC[N+]3(C)CCCCC3C1=Nc1ccccc12` (centres undefined), the TGI in the assay on HL-60(TB) leukemia, with MCF7 breast, in the assay with SK-MEL-2 melanoma, in the assay on SK-OV-3 ovarian, in the assay on COLO 205 colon and in the assay with OVCAR-5 ovarian was above 100 µM each time. For the same molecule, the TGI in the assay with SR leukemia, with M14 melanoma, in the assay with IGROV1 ovarian, in the assay with ACHN renal and in the assay with MDA-MB-231 breast was above 100 µM each time.
For `N#Cc1ccc([N+](=O)[O-])cc1NC(N)=S`, the TGI in the assay on SK-MEL-2 melanoma, with SK-OV-3 ovarian, in the assay on COLO 205 colon, in the assay with OVCAR-5 ovarian, with SR leukemia and with M14 melanoma was above 100 µM each time. Moreover, the TGI in the assay on IGROV1 ovarian is above 100 µM.
In the case of `COc1cc2c3c(n(CCCn4cncn4)c(=O)c2cc1OC)-c1cc2c(cc1C3=O)OCO2`, the GI50 in the assay with HL-60(TB) leukemia was below 0.0131 µM; in the assay with SK-MEL-2 melanoma it was above 100 µM; in the assay on COLO 205 colon, above 100 µM; with OVCAR-5 ovarian it was above 100 µM; in the assay on SR leukemia, below 0.01 µM; in the assay on M14 melanoma it was below 0.01 µM. Moreover, the figures for the GI50 in the assay on IGROV1 ovarian, with ACHN renal and in the assay on MDA-MB-231 breast were 10.9 µM, below 0.01 µM and 80.9 µM, respectively. Besides, the TGI in the assay on HL-60(TB) leukemia is 1.16 µM; with MCF7 breast, above 100 µM; in the assay with SK-MEL-2 melanoma, above 100 µM; with COLO 205 colon, above 100 µM; with OVCAR-5 ovarian, above 100 µM; in the assay on M14 melanoma, above 100 µM. Also, the TGI in the assay on IGROV1 ovarian is above 100 µM; in the assay on ACHN renal, 2.56 µM; with MDA-MB-231 breast it was above 100 µM.
On to `CCCCC(=O)c1c(O)ccc2c(C)cc(=O)oc12`, for which the TGI with HL-60(TB) leukemia, in the assay with MCF7 breast, in the assay with SK-MEL-2 melanoma, in the assay on COLO 205 colon, in the assay on OVCAR-5 ovarian and in the assay with SR leukemia was above 100 µM each time. Besides, the TGI in the assay with M14 melanoma, in the assay with IGROV1 ovarian, with ACHN renal and in the assay with MDA-MB-231 breast was above 100 µM in each case.
`CCOc1ccccc1Nc1ccc(N)cc1S(=O)(=O)O`: the TGI in the assay with SK-MEL-2 melanoma, in the assay with OVCAR-5 ovarian, in the assay with SR leukemia, in the assay on M14 melanoma, with IGROV1 ovarian and in the assay with ACHN renal was above 100 µM throughout. The TGI in the assay on MDA-MB-231 breast was above 100 µM.
As for `COc1ccc(C(=O)CCN(C)C)c2ccccc12`, the TGI was 37 µM with HL-60(TB) leukemia; 33.2 µM in the assay on MCF7 breast; 39.2 µM in the assay with SK-MEL-2 melanoma; above 100 µM in the assay on SK-OV-3 ovarian; 36.6 µM in the assay with COLO 205 colon; above 96.5 µM with OVCAR-5 ovarian. Moreover, the TGI amounted to 98.3 µM with M14 melanoma, 40.2 µM with IGROV1 ovarian, 34 µM with ACHN renal and 35.6 µM in the assay with MDA-MB-231 breast.
As for `CC1(O)C2(c3ccccc3)CCC[N+]1(C)CC2` (centres undefined), the TGI in the assay with HL-60(TB) leukemia, in the assay on MCF7 breast, with SK-MEL-2 melanoma, in the assay with SK-OV-3 ovarian, in the assay on COLO 205 colon and in the assay with OVCAR-5 ovarian was above 100 µM in each case. Further, the TGI in the assay with M14 melanoma, in the assay with IGROV1 ovarian and in the assay with MDA-MB-231 breast was above 100 µM each time.
Consider `CC[C@@]1(O)C[C@H](OC2CC(N(C)C)C(OC3CC(O)C(OC4CCC(=O)C(C)O4)C(C)O3)C(C)O2)c2c(cc3c(c2O)C(=O)c2c(O)cccc2C3=O)C1C(=O)OC` (some centres undefined), for which the TGI in the assay with SK-MEL-2 melanoma is 0.0581 µM and 0.425 µM; with SK-OV-3 ovarian it was 6 µM and 12.7 µM; in the assay with OVCAR-5 ovarian, 3.11 µM and 1.56 µM; with SR leukemia, 1.23 µM; with M14 melanoma, 0.237 µM and 0.769 µM; with ACHN renal, 2.15 µM. In the assay with MDA-MB-231 breast, this molecule returned a TGI of 0.058 µM. Moreover, in the assay on SR leukemia, the GI50 was 0.00493 µM.
Turning to `Nc1nc(SCCNC(=O)CCc2ccc(O)c(I)c2)nc2c1ncn2C1OC(CO)C(O)C1O` (centres undefined), the TGI in the assay with HL-60(TB) leukemia, in the assay on SK-MEL-2 melanoma, in the assay with SK-OV-3 ovarian, with COLO 205 colon, in the assay on OVCAR-5 ovarian and in the assay with SR leukemia was above 100 µM throughout. Also, the TGI in the assay on M14 melanoma, in the assay on IGROV1 ovarian and in the assay with ACHN renal was above 100 µM throughout.
Turning to `[C-]#[N+]C(=C\c1ccc(O)cc1)/C(=C/c1ccc(O)cc1)[N+]#[C-]`, the TGI in the assay with HL-60(TB) leukemia was above 24 µM; with MCF7 breast, above 36.7 µM; in the assay with SK-OV-3 ovarian, above 100 µM; in the assay with COLO 205 colon it was 56.6 µM; in the assay on OVCAR-5 ovarian, above 31.8 µM; with SR leukemia, 5.86 µM. Also, the TGI is above 20.4 µM in the assay with M14 melanoma, above 23.6 µM in the assay on IGROV1 ovarian, above 100 µM with ACHN renal and 6.71 µM in the assay on MDA-MB-231 breast.
For `O=C1CCCCN1`, the TGI with HL-60(TB) leukemia, in the assay with MCF7 breast, in the assay with SK-MEL-2 melanoma, in the assay with SK-OV-3 ovarian, in the assay with COLO 205 colon and in the assay on OVCAR-5 ovarian was above 1120 µM throughout. The molecule also showed a TGI with IGROV1 ovarian above 1120 µM.
On to `C=CCn1c(=O)c(Br)nn(CCOCP(=O)(OCC)OCC)c1=O`, for which the TGI with HL-60(TB) leukemia, with MCF7 breast, in the assay with SK-MEL-2 melanoma, in the assay on COLO 205 colon, in the assay on OVCAR-5 ovarian and with SR leukemia was above 100 µM throughout. The TGI in the assay with M14 melanoma, in the assay on IGROV1 ovarian, in the assay on ACHN renal and in the assay with MDA-MB-231 breast was above 100 µM each time.
As to `CC(C)CNCCc1ccccn1`, the TGI in the assay on HL-60(TB) leukemia, with MCF7 breast, in the assay on SK-MEL-2 melanoma, in the assay with SK-OV-3 ovarian, in the assay with COLO 205 colon and in the assay on OVCAR-5 ovarian was above 100 µM throughout. Also, the TGI in the assay on M14 melanoma, with IGROV1 ovarian, in the assay with ACHN renal and in the assay on MDA-MB-231 breast was above 100 µM throughout.
For the molecule `O=Cc1ccccc1CCn1c(=O)c2cc3c(=O)n(CCc4ccccc4C=O)c(=O)c3cc2c1=O`, the TGI in the assay with HL-60(TB) leukemia, in the assay with SK-MEL-2 melanoma, in the assay on SK-OV-3 ovarian, with IGROV1 ovarian and with ACHN renal was above 100 µM in each case.
On to `CC(C)C1=CC2=CC[C@@H]3[C@](C)(CCC[C@@]3(C)C(=O)O)[C@H]2CC1`, for which the TGI in the assay on HL-60(TB) leukemia is above 88.3 µM; in the assay on SK-MEL-2 melanoma, above 78.9 µM; in the assay with SK-OV-3 ovarian, above 100 µM; in the assay on COLO 205 colon, 71.9 µM; with OVCAR-5 ovarian, above 100 µM; in the assay with SR leukemia, above 100 µM. Further, the TGI in the assay on M14 melanoma, in the assay with IGROV1 ovarian and with ACHN renal was above 100 µM each time.
Turning to `CN1c2c(nc(N)[nH]c2=O)NCC1CCNc1ccc(C(=O)NC(CCC(=O)O)C(=O)O)cc1` (centres undefined), the TGI in the assay with HL-60(TB) leukemia was 2250 µM; in the assay on MCF7 breast it was 2030 µM; in the assay with SK-MEL-2 melanoma, 3050 µM; in the assay on SK-OV-3 ovarian, 2350 µM; with COLO 205 colon it was 2750 µM; with OVCAR-5 ovarian, 2880 µM. The TGI with SR leukemia was found to be 2530 µM; in the assay with M14 melanoma, 1770 µM; in the assay with IGROV1 ovarian, 2470 µM; in the assay on ACHN renal, 2000 µM; in the assay on MDA-MB-231 breast, 3050 µM.
Take `CC1=C(SCCO)C(=O)c2ccccc2C1=O`: the TGI is above 100 µM with HL-60(TB) leukemia; 12.6 µM in the assay with MCF7 breast; 24.5 µM with SK-MEL-2 melanoma; 29.6 µM in the assay on SK-OV-3 ovarian; 24.1 µM with COLO 205 colon; 33.6 µM in the assay with OVCAR-5 ovarian. For the same molecule, the TGI with SR leukemia is above 100 µM; in the assay on M14 melanoma it was 27.6 µM; in the assay with IGROV1 ovarian, 27.3 µM; in the assay on ACHN renal, 13 µM; in the assay on MDA-MB-231 breast, 27.4 µM.
On to `c1ccc(SCCc2ccncc2)cc1`, for which the TGI in the assay with HL-60(TB) leukemia, with MCF7 breast, in the assay with SK-MEL-2 melanoma, in the assay on SK-OV-3 ovarian, with COLO 205 colon and in the assay with OVCAR-5 ovarian was above 100 µM in each case. The TGI with SR leukemia, in the assay with M14 melanoma, in the assay on IGROV1 ovarian, in the assay on ACHN renal and with MDA-MB-231 breast was above 100 µM in each case.
`CC(=O)OCCCCN1C(=O)CSc2ccccc21`: the TGI in the assay with HL-60(TB) leukemia, in the assay with MCF7 breast, in the assay on SK-MEL-2 melanoma, with SK-OV-3 ovarian, in the assay with OVCAR-5 ovarian and in the assay with SR leukemia was above 100 µM each time. For the same molecule, the TGI in the assay on IGROV1 ovarian and with ACHN renal was above 100 µM in each case.
